Here are results for one molecule from publication PMC5218480 (PLoS ONE, 2017).

The test concerns MV-4-11 cells. The experiment in a line: Gene expression microarray analysis (Affymetrix PrimeView) and GSEA. To be noted: ProbeSet 11728443_a_at; LIST B. Type of test: cell-based, human. Details: RFU PODN (11730768_x_at) / Fold change /veh PODN (11730768_x_at) / RFU LINC00158 (11744669_a_at) / Fold change /veh LINC00158 (11744669_a_at) / RFU DUSP10 (11751237_a_at) / Fold change /veh DUSP10 (11751237_a_at) / RFU ID3 (11757404_x_at) / Fold change /veh ID3 (11757404_x_at) / RFU PLEKHG5 (11737974_s_at) / Fold change /veh PLEKHG5 (11737974_s_at) / RFU LRRC4B (11730491_at) / Fold change /veh LRRC4B (11730491_at) / RFU GIMAP4 (11747438_a_at) / Fold change /veh GIMAP4 (11747438_a_at) / RFU KRT8 (11758183_x_at) / Fold change /veh KRT8 (11758183_x_at) / RFU CNN1 (11734310_a_at) / Fold change /veh CNN1 (11734310_a_at) / RFU VPS37D (11726825_at) / Fold change /veh VPS37D (11726825_at) / RFU C10orf10 (11716522_x_at) / Fold change /veh C10orf10 (11716522_x_at) / RFU KIR2DL2 /// KIR2DL4 /// KIR2DL5A /// KIR2DL5B /// KIR2DS1 /// KIR2DS2 /// KIR2DS3 /// KIR2DS4 /// KIR3DL3 /// KIR3DL3 /// KIR3DS1 (11738374_at) / Fold change /veh KIR2DL2 /// KIR2DL4 /// KIR2DL5A /// KIR2DL5B /// KIR2DS1 /// KIR2DS2 /// KIR2DS3 /// KIR2DS4 /// KIR3DL3 /// KIR3DL3 /// KIR3DS1 (11738374_at) / RFU C1QL1 (11718748_at) / Fold change /veh C1QL1 (11718748_at) / RFU TMPRSS4 (11747572_a_at) / Fold change /veh TMPRSS4 (11747572_a_at) / RFU HAMP (11756126_x_at) / Fold change /veh HAMP (11756126_x_at) / RFU RNFT2 (11725882_a_at) / Fold change /veh RNFT2 (11725882_a_at) / RFU NR4A2 (11747474_a_at) / Fold change /veh NR4A2 (11747474_a_at) / RFU ABCC12 (11746883_a_at) / Fold change /veh ABCC12 (11746883_a_at) / RFU TMEM136 (11760407_x_at) / Fold change /veh TMEM136 (11760407_x_at) / RFU CLDN22 /// WWC2 (11732394_at) / Fold change /veh CLDN22 /// WWC2 (11732394_at) / RFU HLA-DPB1 (11760878_x_at) / Fold change /veh HLA-DPB1 (11760878_x_at) / RFU SPINT1 (11716480_a_at) / Fold change /veh SPINT1 (11716480_a_at) / RFU GAP43 (11754022_s_at) / Fold change /veh GAP43 (11754022_s_at) / RFU A4GNT (11735810_at) / Fold change /veh A4GNT (11735810_at) / RFU PRB3 (11715151_x_at) / Fold change /veh PRB3 (11715151_x_at) / RFU TUBB4B (11761932_at) / Fold change /veh TUBB4B (11761932_at) / RFU CAPN14 (11732068_a_at) / Fold change /veh CAPN14 (11732068_a_at) / RFU TMCC2 (11721928_a_at) / Fold change /veh TMCC2 (11721928_a_at) / RFU IRGQ (11745062_a_at) / Fold change /veh IRGQ (11745062_a_at) / RFU FAM174B (11720279_a_at) / Fold change /veh FAM174B (11720279_a_at) / RFU TMPRSS4 (11748680_a_at) / Fold change /veh TMPRSS4 (11748680_a_at) / RFU FAM212B (11763350_a_at) / Fold change /veh FAM212B (11763350_a_at) / RFU PLEKHG5 (11743358_a_at) / Fold change /veh PLEKHG5 (11743358_a_at) / RFU ZSCAN30 (11745921_a_at) / Fold change /veh ZSCAN30 (11745921_a_at) / RFU CMKLR1 (11741424_a_at) / Fold change /veh CMKLR1 (11741424_a_at) / RFU LOC101060620 /// MAPK8IP1 (11723275_at) / Fold change /veh LOC101060620 /// MAPK8IP1 (11723275_at) / RFU SPTSSB (11747773_x_at) / Fold change /veh SPTSSB (11747773_x_at) / RFU PRSS12 (11739890_at) / Fold change /veh PRSS12 (11739890_at) / RFU BIN1 (11741810_x_at) / Fold change /veh BIN1 (11741810_x_at) / RFU WNT11 (11732464_a_at) / Fold change /veh WNT11 (11732464_a_at) / RFU C10orf10 (11716521_a_at) / Fold change /veh C10orf10 (11716521_a_at) / RFU C5orf56 (11738089_at) / Fold change /veh C5orf56 (11738089_at) / RFU CYB561 (11721691_x_at) / Fold change /veh CYB561 (11721691_x_at) / RFU ANKRD19P (11752326_a_at) / Fold change /veh ANKRD19P (11752326_a_at) / RFU OR2T12 /// OR2T33 /// OR2T8 (11738714_s_at) / Fold change /veh OR2T12 /// OR2T33 /// OR2T8 (11738714_s_at) / RFU VCAN (11748164_a_at) / Fold change /veh VCAN (11748164_a_at) / RFU JSRP1 (11732532_at) / Fold change /veh JSRP1 (11732532_at) / RFU KRTAP10-11 (11738290_x_at) / Fold change /veh KRTAP10-11 (11738290_x_at) / RFU MYO3A (11730013_a_at) / Fold change /veh MYO3A (11730013_a_at) / RFU EBF3 (11725865_a_at) / Fold change /veh EBF3 (11725865_a_at) / RFU CAMK2N1 (11719241_x_at) / Fold change /veh CAMK2N1 (11719241_x_at) / RFU C5orf56 (11738088_a_at) / Fold change /veh C5orf56 (11738088_a_at) / RFU OLFML3 (11715873_a_at) / Fold change /veh OLFML3 (11715873_a_at) / RFU LOC100653217 /// NTM (11731650_a_at) / Fold change /veh LOC100653217 /// NTM (11731650_a_at) / RFU MAPK11 (11762145_a_at) / Fold change /veh MAPK11 (11762145_a_at) / RFU FIZ1 (11724087_x_at) / Fold change /veh FIZ1 (11724087_x_at) / RFU OASL (11726364_x_at) / Fold change /veh OASL (11726364_x_at) / RFU SOX15 (11748057_x_at) / Fold change /veh SOX15 (11748057_x_at) / RFU CD79A (11719716_a_at) / Fold change /veh CD79A (11719716_a_at) / RFU HIST1H1D (11736915_at) / Fold change /veh HIST1H1D (11736915_at) / RFU CASKIN2 (11723855_a_at) / Fold change /veh CASKIN2 (11723855_a_at) / RFU LOC730098 (11760151_x_at) / Fold change /veh LOC730098 (11760151_x_at) / RFU OR4N2 (11742367_at) / Fold change /veh OR4N2 (11742367_at) / RFU PRRT2 (11749266_a_at) / Fold change /veh PRRT2 (11749266_a_at) / RFU SNX32 (11753110_a_at) / Fold change /veh SNX32 (11753110_a_at) / RFU CDHR5 (11726645_a_at) / Fold change /veh CDHR5 (11726645_a_at) / RFU RCAN1 (11760418_a_at) / Fold change /veh RCAN1 (11760418_a_at) / RFU FAM167A (11723789_a_at) / Fold change /veh FAM167A (11723789_a_at) / RFU FAM26E (11764081_at) / Fold change /veh FAM26E (11764081_at) / RFU ISYNA1 (11749810_s_at) / Fold change /veh ISYNA1 (11749810_s_at) / RFU ACY1 (11761880_at) / Fold change /veh ACY1 (11761880_at) / RFU 11764098_at / Fold change /veh 11764098_at / RFU SAMD14 (11745864_x_at) / Fold change /veh SAMD14 (11745864_x_at) / RFU NPB (11741838_a_at) / Fold change /veh NPB (11741838_a_at) / RFU TMPRSS6 (11731388_a_at) / Fold change /veh TMPRSS6 (11731388_a_at) / RFU KRTAP10-2 (11738614_at) / Fold change /veh KRTAP10-2 (11738614_at) / RFU ARHGAP8 /// PRR5-ARHGAP8 (11727945_x_at) / Fold change /veh ARHGAP8 /// PRR5-ARHGAP8 (11727945_x_at) / RFU KRTAP5-7 /// NADSYN1 (11734609_at) / Fold change /veh KRTAP5-7 /// NADSYN1 (11734609_at) / RFU RASL12 (11751679_a_at) / Fold change /veh RASL12 (11751679_a_at) / RFU CDKN2B (11736163_a_at) / Fold change /veh CDKN2B (11736163_a_at) / RFU PRF1 (11729649_at) / Fold change /veh PRF1 (11729649_at) / RFU, ZNF638 /// ZNF638-IT1 / Fold change vs veh, ZNF638 /// ZNF638-IT1 / RFU, PANK3 / Fold change vs veh, PANK3 / RFU, SH3YL1 / Fold change vs veh, SH3YL1 / RFU, ZEB2 / Fold change vs veh, ZEB2 / RFU, NRIP1 / Fold change vs veh, NRIP1 / RFU, PTTG1IP / Fold change vs veh, PTTG1IP / RFU, CAPN2 / Fold change vs veh, CAPN2 / RFU, MED14 / Fold change vs veh, MED14 / RFU, SNORA58 / Fold change vs veh, SNORA58 / RFU, C1orf63 / Fold change vs veh, C1orf63 / RFU, LRRFIP1 / Fold change vs veh, LRRFIP1 / RFU, NDUFAF7 / Fold change vs veh, NDUFAF7 / RFU, SLC12A2 / Fold change vs veh, SLC12A2 / RFU, IBTK / Fold change vs veh, IBTK / RFU, ESF1 / Fold change vs veh, ESF1 / Fold change vs veh, TMEM50B / RFU, TAOK1 / Fold change vs veh, TAOK1 / RFU, ACBD3 / Fold change vs veh, ACBD3 / RFU, TMA16 / Fold change vs veh, TMA16 / RFU, RWDD3 / Fold change vs veh, RWDD3 / RFU, BCAT1 / Fold change vs veh, BCAT1 / RFU, EDEM3 / Fold change vs veh, EDEM3 / RFU, TMEM33 / Fold change vs veh, TMEM33 / RFU, WDR75 / Fold change vs veh, WDR75 / RFU, AHCTF1 / Fold change vs veh, AHCTF1 / RFU, TFRC / Fold change vs veh, TFRC / RFU, ZDHHC17 / Fold change vs veh, ZDHHC17 / RFU, NOM1 / Fold change vs veh, NOM1 / RFU, ARL8B / Fold change vs veh, ARL8B / RFU, ZBTB11 / Fold change vs veh, ZBTB11 / RFU, TAMM41 / Fold change vs veh, TAMM41 / RFU, KIAA1704 /// LOC100996395 / Fold change vs veh, KIAA1704 /// LOC100996395 / RFU, ING1 / Fold change vs veh, ING1 / RFU, TRMT61B / Fold change vs veh, TRMT61B / RFU, FUBP3 / Fold change vs veh, FUBP3 / RFU, TP53 / Fold change vs veh, TP53 / RFU, TNKS2 / Fold change vs veh, TNKS2 / RFU, ZFP14 / Fold change vs veh, ZFP14 / RFU, ACTR2 / Fold change vs veh, ACTR2 / RFU, PPP3R1 / Fold change vs veh, PPP3R1 / RFU, PIK3R1 / Fold change vs veh, PIK3R1 / RFU, HNRNPA1 / Fold change vs veh, HNRNPA1 / RFU, RNF170 / Fold change vs veh, RNF170 / RFU, ZNF28 / Fold change vs veh, ZNF28 / RFU, RNGTT / Fold change vs veh, RNGTT / RFU, OGT / Fold change vs veh, OGT / RFU, BRD1 / Fold change vs veh, BRD1 / RFU, MARS / Fold change vs veh, MARS / RFU, ZNF655 / Fold change vs veh, ZNF655 / RFU, FAHD1 / Fold change vs veh, FAHD1 / RFU, BDP1 / Fold change vs veh, BDP1 / RFU, LRRCC1 / Fold change vs veh, LRRCC1 / RFU, ARID1A / Fold change vs veh, ARID1A / RFU, ZNF146 / Fold change vs veh, ZNF146 / RFU, ZNF330 / Fold change vs veh, ZNF330 / RFU, GPN3 / Fold change vs veh, GPN3 / RFU, C9orf123 / Fold change vs veh, C9orf123 / RFU, N4BP2L2 / Fold change vs veh, N4BP2L2 / RFU, ARFIP1 / Fold change vs veh, ARFIP1 / RFU, FAM179B / Fold change vs veh, FAM179B / RFU, BCL10 / Fold change vs veh, BCL10 / RFU, UHRF1BP1L / Fold change vs veh, UHRF1BP1L / RFU, BET1 / Fold change vs veh, BET1 / RFU, CNOT2 / Fold change vs veh, CNOT2 / RFU, ZNF268 / Fold change vs veh, ZNF268 / Fold change vs veh, ZNF507 / RFU, DGCR2 / Fold change vs veh, DGCR2 / RFU, WDSUB1 / Fold change vs veh, WDSUB1 / Fold change vs veh, HSP90B1 /// MIR3652 / RFU, ADSS / Fold change vs veh, ADSS / RFU, GK / Fold change vs veh, GK / RFU, ZNF148 / Fold change vs veh, ZNF148 / RFU, TAF9 / Fold change vs veh, TAF9 / RFU, SLC1A5 / Fold change vs veh, SLC1A5 / RFU, SLMO2 / Fold change vs veh, SLMO2 / RFU, ABCC4 / Fold change vs veh, ABCC4 / RFU, LOC101060439 /// RAP1B / Fold change vs veh, LOC101060439 /// RAP1B / RFU, RFX7 / Fold change vs veh, RFX7 / RFU, GTPBP10 / Fold change vs veh, GTPBP10 / RFU, CNEP1R1 / Fold change vs veh, CNEP1R1 / RFU, BIVM-ERCC5 /// ERCC5 / Fold change vs veh, BIVM-ERCC5 /// ERCC5 / RFU, ILF3 / Fold change vs veh, ILF3 / RFU 11762660_at / Fold change /veh 11762660_at / RFU VCAN (11757783_s_at) / Fold change /veh VCAN (11757783_s_at) / RFU DDX43 (11728927_at) / Fold change /veh DDX43 (11728927_at) / RFU KRT8 (11758188_x_at) / Fold change /veh KRT8 (11758188_x_at) / RFU NKD1 (11759106_at) / Fold change /veh NKD1 (11759106_at) / RFU SRD5A1 (11742802_a_at) / Fold change /veh SRD5A1 (11742802_a_at) / RFU TPSAB1 /// TPSB2 (11721975_s_at) / Fold change /veh TPSAB1 /// TPSB2 (11721975_s_at) / RFU GSTM3 (11746129_a_at) / Fold change /veh GSTM3 (11746129_a_at) / RFU IL23R (11737362_x_at) / Fold change /veh IL23R (11737362_x_at) / RFU TMEM51 (11727254_a_at) / Fold change /veh TMEM51 (11727254_a_at) / RFU PIWIL2 (11732686_x_at) / Fold change /veh PIWIL2 (11732686_x_at) / RFU ORM1 (11744905_x_at) / Fold change /veh ORM1 (11744905_x_at) / RFU CCDC152 (11743942_at) / Fold change /veh CCDC152 (11743942_at) / RFU ECM1 (11717891_a_at) / Fold change /veh ECM1 (11717891_a_at) / RFU IL23R (11748794_a_at) / Fold change /veh IL23R (11748794_a_at) / RFU TNFAIP8L3 (11732012_x_at) / Fold change /veh TNFAIP8L3 (11732012_x_at) / RFU MBOAT4 (11741988_at) / Fold change /veh MBOAT4 (11741988_at) / RFU 11764193_at / Fold change /veh 11764193_at / RFU TMEM53 (11763286_at) / Fold change /veh TMEM53 (11763286_at) / RFU MAGEB2 (11727129_at) / Fold change /veh MAGEB2 (11727129_at) / RFU TMEM200A (11744735_a_at) / Fold change /veh TMEM200A (11744735_a_at) / RFU CCDC152 (11751479_a_at) / Fold change /veh CCDC152 (11751479_a_at) / RFU FAM211A (11726209_a_at) / Fold change /veh FAM211A (11726209_a_at) / RFU RGS16 (11746705_a_at) / Fold change /veh RGS16 (11746705_a_at) / RFU VCAN (11755009_s_at) / Fold change /veh VCAN (11755009_s_at) / RFU RHOB (11743442_s_at) / Fold change /veh RHOB (11743442_s_at) / RFU RGS16 (11720943_a_at) / Fold change /veh RGS16 (11720943_a_at) / RFU RGS16 (11720944_at) / Fold change /veh RGS16 (11720944_at) / RFU, VPS4B / Fold change vs veh, VPS4B / RFU, CREB1 / Fold change vs veh, CREB1 / RFU, DNAJC13 / Fold change vs veh, DNAJC13 / RFU, GNAQ / Fold change vs veh, GNAQ / RFU, CDK5R1 / Fold change vs veh, CDK5R1 / RFU, ZRANB3 / Fold change vs veh, ZRANB3 / RFU, CUL4A / Fold change vs veh, CUL4A / RFU, CCNY / Fold change vs veh, CCNY / RFU, UFL1 / Fold change vs veh, UFL1 / RFU, COG3 / Fold change vs veh, COG3 / RFU, DIAPH2 / Fold change vs veh, DIAPH2 / RFU, SKA2 / Fold change vs veh, SKA2 / RFU, AFF3 / Fold change vs veh, AFF3 / RFU, LMF1 / Fold change vs veh, LMF1 / RFU, IPO11 / Fold change vs veh, IPO11 / RFU, DFFB / Fold change vs veh, DFFB / RFU, FOXP1 / Fold change vs veh, FOXP1 / RFU, CARD8 / Fold change vs veh, CARD8 / RFU, STRN3 / Fold change vs veh, STRN3 / RFU, ADK / Fold change vs veh, ADK / RFU, RASSF2 / Fold change vs veh, RASSF2 / RFU, WIPF1 / Fold change vs veh, WIPF1 / RFU, LARP1B / Fold change vs veh, LARP1B / RFU, RASA1 / Fold change vs veh, RASA1 / RFU, RB1 / Fold change vs veh, RB1 / RFU, PPFIA1 / Fold change vs veh, PPFIA1 / RFU, MAT2A / Fold change vs veh, MAT2A / RFU, CCT5 / Fold change vs veh, CCT5 / RFU, WDR92 / Fold change vs veh, WDR92 / RFU, CUX1 / Fold change vs veh, CUX1 / RFU, TTC7A / Fold change vs veh, TTC7A / RFU, TMEM135 / Fold change vs veh, TMEM135 / RFU, DEPTOR / Fold change vs veh, DEPTOR / RFU, CPM / Fold change vs veh, CPM / RFU, DNAJB6 / Fold change vs veh, DNAJB6 / RFU, CACNA2D3 / Fold change vs veh, CACNA2D3 / RFU, DTX4 / Fold change vs veh, DTX4 / RFU, TFCP2 / Fold change vs veh, TFCP2 / RFU, GMCL1 /// GMCL1P1 / Fold change vs veh, GMCL1 /// GMCL1P1 / RFU, AEBP2 / Fold change vs veh, AEBP2 / RFU, SNHG1 /// SNORD22 /// SNORD25 /// SNORD26 /// SNORD27 /// SNORD28 /// SNORD29 /// SNORD31 / Fold change vs veh, SNHG1 /// SNORD22 /// SNORD25 /// SNORD26 /// SNORD27 /// SNORD28 /// SNORD29 /// SNORD31 / Fold change (Aza/veh), C12orf56 (ProbeSet 11735607_a_at) / Fold change (ACY-1035/veh), C12orf56 (ProbeSet 11735607_a_at) / Fold change (Aza/veh), FGFR1OP (ProbeSet 11751329_s_at) / Fold change (ACY-1035/veh), FGFR1OP (ProbeSet 11751329_s_at) / Fold change (Aza/veh), VPS36 (ProbeSet 11739960_a_at) / Fold change (ACY-1035/veh), VPS36 (ProbeSet 11739960_a_at) / RFU SYPL1 (11715823_x_at) / Fold change /veh SYPL1 (11715823_x_at) / RFU IGFBP7 (11715501_s_at) / Fold change /veh IGFBP7 (11715501_s_at) / RFU REEP3 (11722064_at) / Fold change /veh REEP3 (11722064_at) / RFU IGLL1 (11728026_x_at) / Fold change /veh IGLL1 (11728026_x_at): dose or concentration left out as unconfirmed.

With `Nc1ccc(-c2cccs2)cc1NC(=O)c1ccc2c(c1)cc(C1CC1)n2CCN1CCOCC1` [ACY-1035], the “RFU, TAOK1” value was 54.83 RFU.
